{"source": "paper PMC5473854", "about": "“Structure of the human TRiC/CCT Subunit 5 associated with hereditary sensory neuropathy” (Scientific Reports, 2017)", "target": "T1, human CCT5 (TRiC subunit 5) homo-oligomeric complex (Homo sapiens, UniProt P48643, H147R)", "T1 construct": "recombinant from pET21a in E. coli BL21(DE3)RIL, Histrap purified (tag not described here); double homo-octameric ring (two rings of eight, homo-hexadecamer)", "T1 sequence (P48643 whole entry H147R, the tested form may be a part, one chain of several)": "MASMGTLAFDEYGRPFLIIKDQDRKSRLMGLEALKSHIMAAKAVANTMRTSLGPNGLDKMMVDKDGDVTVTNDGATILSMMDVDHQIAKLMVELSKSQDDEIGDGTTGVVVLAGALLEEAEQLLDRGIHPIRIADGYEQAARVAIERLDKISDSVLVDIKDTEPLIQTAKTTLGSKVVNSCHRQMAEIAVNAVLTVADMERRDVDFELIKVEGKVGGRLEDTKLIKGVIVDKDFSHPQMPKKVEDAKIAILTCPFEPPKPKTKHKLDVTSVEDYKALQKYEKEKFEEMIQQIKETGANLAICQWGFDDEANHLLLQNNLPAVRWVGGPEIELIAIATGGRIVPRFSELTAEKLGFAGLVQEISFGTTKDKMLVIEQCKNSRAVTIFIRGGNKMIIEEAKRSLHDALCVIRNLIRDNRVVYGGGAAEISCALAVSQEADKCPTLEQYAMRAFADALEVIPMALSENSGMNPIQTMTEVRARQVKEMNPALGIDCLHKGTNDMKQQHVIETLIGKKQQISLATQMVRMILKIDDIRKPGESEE", "test": "X-ray crystal structure, […] Å", "conditions": "co-crystallised with 5.0 mM ADP; nucleotide-binding site of equatorial domain; 4 ADP per 4 subunits in asymmetric unit"}
{"smiles": "Nc1ncnc2c1ncn2[C@@H]1O[C@H](COP(=O)(O)OP(=O)(O)O)[C@@H](O)[C@H]1O", "note": "[ADP]", "values": [{"measurement": "X-ray crystal structure, 3.6 Å", "value": "the CCT5-H147R structure was solved in complex with the nucleotide ADP"}]}
